Source: ChEMBL document CHEMBL1156829 (Proc Natl Acad Sci U S A, 2008)

Legend:
[1] = system: Plasmodium falciparum; assay: NOVARTIS: Inhibition of Plasmodium falciparum 3D7 (drug-susceptible) proliferation in erythrocyte-based infection assay; assay type: functional, organism-based; settings: Plasmodium falciparum, 3D7
[2] = NOVARTIS: Cytotoxicity against human hepatocellular carcinoma cell line (Huh7); assay type: toxicity, cell-based, Huh-7; settings: Huh7 cells (hepatocellular carcinoma cell line)
[3] = system: Plasmodium falciparum; assay: NOVARTIS: Inhibition of Plasmodium falciparum W2 (drug-resistant) proliferation in erythrocyte-based infection assay; assay type: functional, organism-based; settings: Plasmodium falciparum, W2; read-out: EC50

SMILES | EC50 [1] [µM] | CC50 [2] [µM] | EC50 [3] [µM]
CN(C)c1cc(NC(=O)Nc2ccccc2)c2ccccc2n1 | 0.148 | 6.78 | 0.332
CC(C)Nc1ccc(Nc2ccnc3cc4ccccc4cc23)cc1 | 0.0318 | 5.4 | 0.277
CCN1C=CC(=Cc2ccc3ccccc3[n+]2C)C=C1 | 0.453 | 20 | 0.976
Oc1cccc(Nc2nc(NCC3CCCO3)c3ccccc3n2)c1 (configuration not stated) | 0.266 | 6.98 | 0.341
Oc1cccc(-c2nc(-c3ccccc3)c(-c3ccc4oc5ccc(-c6[nH]c(-c7cccc(O)c7)nc6-c6ccccc6)cc5c4c3)[nH]2)c1 | 2.35 | 20.4 | 1.01
Cc1ccc(Nc2nc(NN=Cc3ccc(-c4ccc([N+](=O)[O-])cc4)o3)nc(N3CCOCC3)n2)cc1Cl | > 0.598 | > 10 | 0.503
CCCCCCCCC(=O)N1CCN(C(CC)c2nc3ccccc3c(=O)n2C)CC1 (configuration not stated) | 0.492 | > 10 | 0.5
CCC(C(=O)N(C)CCCNc1ccnc2cc(Cl)ccc12)c1ccccc1 (configuration not stated) | 0.311 | 6.17 | 0.31
c1ccc(CCCNc2ccnc3cc4ccccc4cc23)cc1 | 0.199 | 4.14 | 0.209
COc1ccc(CN2C[C@H](Sc3nc4ccccc4[nH]3)C[C@H]2C(=O)NC2CC2)cc1C | 0.545 | 16.5 | 0.83
Cc1cc(N2CCC(N(C)C3CCCC3)CC2)nc2cc(O)ccc12 | 0.312 | 25.5 | 1.29
CCCN1CCC(N2C[C@@H](NCc3ccc4c(c3)c3ccccc3n4CC)C[C@H]2C(=O)NCC)CC1 | > 0.252 | > 6.38 | 0.323
CC(C)(C)C1=CC(=C2C=C(C(C)(C)C)SC(C(C)(C)C)=C2)C=C(C(C)(C)C)S1 | 0.805 | > 10 | 0.506
CC(CCCO)Nc1ccnc2cc(Cl)ccc12 (configuration not stated) | 0.561 | > 10 | 0.513
CCCCCCCCC(=O)NCCCCNc1ccnc2cc(Cl)ccc12 | 1.15 | 5.6 | 0.286
Cc1ccc2[nH]c3c(NCCc4ccccc4F)ncnc3c2c1 | 0.835 | 16.5 | 0.843
CCN(CC)CCCNC(=S)N(CCN(CC)CC)Cc1cc2ccc(C)c(C)c2[nH]c1=O | 3.28 | 51.1 | > 2.61
Cc1nc(CC(=O)N2CCCC(CNC(=O)C3(c4ccc(Cl)cc4)CC3)C2)cs1 (configuration not stated) | > 12.5 | > 100 | 5.02
O=C(NCCCCNc1ccnc2cc(Cl)ccc12)c1ccccc1Br | 0.468 | > 10 | 0.494
COc1ccccc1NC(=O)c1cnn(-c2ccccc2)c1-n1cccc1 | > 0.119 | > 10 | 0.494
CN1CCN(c2cc(-c3ccncc3)nc(-c3cccnc3)n2)CC1 | 0.511 | > 10 | 0.494
CCOC(=O)c1cnc2c(OC)cccc2c1Nc1ccc(OC)c(OC)c1 | 0.827 | > 10 | 0.493
O=[N+]([O-])c1cc(C(F)(F)F)c(Cl)c([N+](=O)[O-])c1Nc1cc(C(F)(F)F)ccc1Cl | 0.565 | 6.13 | 0.301
CCOc1ccc(N=C2NC(=O)SC2=C2C(=O)Nc3ccc(Br)cc32)cc1 | > 12.5 | > 100 | 4.91
c1ccc(CN2CCC(Nc3ncnc4cc(-c5ccccc5)sc34)CC2)cc1 | 2.06 | > 100 | 4.89
COCCNCCN1CCN(c2ccc(C)cc2)C[C@@H]1c1ccccc1 | 0.436 | 11.2 | 0.548
Cc1ccc(N=C2NC(=O)/C(=C\c3cc(C)n(-c4cccc([N+](=O)[O-])c4)c3C)S2)cc1 | 0.442 | > 10 | 0.488

SMILES | EC50 [1] [µM] | CC50 [2] [µM] | EC50 [3] [µM]
CN(C)c1ccc(/C=C2\SC(=Nc3ccc(F)cc3)NC2=O)cc1 | 0.361 | > 10 | 0.493
COc1ccc(Nc2c3c(nc4ccc(NC(=O)c5cc(=O)c6ccccc6o5)cc24)CCCC3)cc1OC | 0.303 | 11.1 | 0.558
CC(=O)Nc1ccc2c(c1)C(=O)N(C(CC(C)C)C(=O)NCC(=O)O)[C@@H](CCC(=O)OCc1ccccc1)C(=O)N2 (some centres not stated) | 0.0482 | > 10 | > 0.503
CCN(CC)CCCC(C)NCc1ccc(OCc2ccccc2)c(OC)c1 (configuration not stated) | 0.771 | > 10 | 0.494
OC(CNC1CCN(Cc2ccccc2)CC1)COc1ccc(Br)cc1 (configuration not stated) | 0.745 | > 10 | 0.499
CCCCCCCCCn1c2c(c(=N)c3c1CCC3)CCCC2 | 0.132 | 3.74 | 0.185
Cc1ccc(S(=O)(=O)N=C2C=C(Sc3nc4ccccc4[nH]3)C(=O)c3ccccc32)cc1 | 0.632 | 16.8 | 0.834
CC(C)(C)CC(C)(C)Nc1c(-c2ccccc2OC(=O)c2ccco2)nc2ccccn12 | > 12.5 | > 100 | 4.96
CCN1C=C(c2ccc(C)cc2)S/C1=C\c1sc2ccccc2[n+]1C | 0.362 | 18.9 | 0.938
COc1ccc(-c2ccc3c(N)c(C(=O)NCCc4ccccc4)sc3n2)cc1OC | > 10.8 | > 100 | 4.97
Cc1cc(N2CCN(C)CC2)nc2ccc(NC(=O)c3ccc(Br)o3)cc12 | 1.68 | 53.7 | 2.68
CCN(Cc1ccccc1)Cc1c(O)ccc2oc(C)c(C(=O)Nc3ccc(C)cc3C)c12 | 3.49 | 42.3 | 2.1
CCC(Sc1nc(C)cc(-c2ccccc2)n1)C(=O)Nc1cccc2ccccc12 (configuration not stated) | > 1.25 | > 10 | 0.496
Cc1nn(C(=O)NS(=O)(=O)c2ccccc2Cl)c(C)c1C | > 0.81 | > 10 | > 0.496
N=c1c2c(n(Cc3ccc(Cl)c(Cl)c3)c3c1CCC3)CCCC2 | 0.503 | > 10 | 0.506
N#Cc1cc(-c2cccc(C(F)(F)F)c2)cn(Cc2c(Cl)cccc2Cl)c1=O | > 7.43 | > 100 | 5.08
CCOC(=O)c1ccc(NC(=O)c2cc3ccccn3n2)cc1 | > 1.25 | > 10 | > 0.5
C=CCSc1oc(-c2ccco2)nc1[P+](c1ccccc1)(c1ccccc1)c1ccccc1 | 0.309 | 8.42 | 0.416
COc1cc(NC(C)CCCN(Cc2ccc(N(C)C)cc2)C(=O)c2ccc(F)cc2)c2ncccc2c1 (configuration not stated) | > 0.63 | > 10 | 0.501
OC(CN1CCN(C2c3ccccc3-c3ccccc32)CC1)Cn1c2ccc(Br)cc2c2cc(Br)ccc21 (configuration not stated) | > 11.3 | > 100 | 5.08
CCN1/C(=C/c2sc3ccc(OC)cc3[n+]2CC)C=Cc2cc(C)ccc21 | 0.431 | > 10 | 0.508
CC(=O)N1CCNC1=Nc1c(Cl)nc(C)nc1Cl | 0.444 | > 10 | 0.498
COc1cc(CN2CCN(c3ccccn3)CC2)cc(I)c1O | > 9.9 | > 100 | 4.89
O=C(NCCc1ccc(-c2ccccc2)cc1)c1ccc(NS(=O)(=O)C(F)(F)F)cc1 | > 1.25 | > 8.73 | > 0.439
C=CCOc1ccccc1CN1CCN(c2ccccn2)CC1 | > 9.99 | > 98.5 | 4.85
Cc1ccc(-c2cn3ccccc3[n+]2CC(=O)c2ccc(Cl)cc2)cc1[N+](=O)[O-] | 0.369 | > 10 | 0.506
O=C(CCCCCN1C(=O)c2cccc3cccc(c23)C1=O)NO | 0.563 | 3.32 | 0.164
